Experimental data as given in patent US6447749B1, “Perfluoro-alkyl containing dye molecules and galencial formulations” (Schering Aktiengesellschaft, priority 1999, dated 2002).

Assays:
[1] = Photophysical characterization: fluorescence properties and fluorescence quantum yield (SPEX-fluorolog, relative to indocyanine green); assay type: physicochemical
Procedure: The determination of the absorption maxima and extinction coefficients was carried out with a Lambda 2-spectrometer (Perkin-Elmer Company). The fluorescence properties were determined on a SPEX-fluorolog (Instruments S. A. Company, photomultiplier Hamamatsu PM928, excitation 350W xenon lamp). the determination of the fluorescence quantum yield was carried out relative to indocyanine green (O=13% in DMSO) by excitation at 585 nm (dyes with p=2) or 685 nm (dyes with p=3), in each case of solutions of concentration 2 μM in dye, and correction with the spectral sensitivity of lamp and detector.

regional lymph nodes [2] = test: Interstitial near-infrared lymphography of guinea pigs; assay type: in vivo; details: guinea pig, formulation 5 mol % of dye 8/95 mol % Gd complex, interstitial/intracutaneous, 0.3 μmol/kg of 8
Procedure: The imaging properties of the formulations according to the invention were studied in vivo in guinea pigs. […] The fluorescence of the substances was stimulated by irradiation of the animals with near-infrared light of wavelength 740 nm, which was produced with an Nd:YAG laser. The fluorescence radiation was detected at a wavelength of >800 nm by an intensified CCD-camera, and the fluorescence images were stored digitally.
0.1 ml of a stock solution with 1 mmol/L of 8 was injected into a skin fold between the toes of the right rear extremity, and the final concentration was 0.3 μmol/kg of 8.

regional lymph nodes [3] = test: Coloring of regional lymph nodes after interstitial administration; assay type: in vivo; details: guinea pig; formulation 5 mol % of dye 8/95 mol % Gd complex; after interstitial/intracutaneous administration, lymph nodes prepared ex vivo; listed as 8, sodium salt
Procedure: After the interstitial near-infrared lymphography was completed, the regional lymph nodes were prepared in the area of the administration site. […] This coloring can be used for the intraoperative diagnosis for the identification of the draining lymph nodes of a certain tissue area and for differentiating the lymph nodes from the surrounding tissue.

popliteal lymph node = test: Localization in lymph nodes by fluorescence microscopy on frozen sections; assay type: in vivo; details: guinea pig popliteal lymph node; four hours after interstitial administration; formulation 5 mol % of dye 8/95 mol % Gd complex; untreated animals no fluorescence
Procedure: The localization of the formulations according to the invention in lymph nodes was studied by fluorescence microscopy on frozen sections of the lymph nodes. In this respect, the lymph nodes were prepared after the lymphography and deep-frozen at −80° C. Sections with a 5 μm thickness were produced on a freezing microtome. The evaluation was carried out on a Zeiss Axiovert 135-fluorescence microscope, which was equipped with a Cy 7-(excitation filter HQ710/70 nm, emission filter 810/90 nm, beam splitter 750 nm LP). From all the preparations, white light and fluorescence images were recorded with a CCD camera (Princeton Instruments RTE/CCD-576) and stored digitally.
Images of a cryosection from a popliteal lymph node of an untreated guinea pig in bright field (3c) and in near-infrared-fluorescence (3d) are shown for comparison.

lymph nodes [4] = test: Fluorescence coloring of lymph nodes after intravenous administration; assay type: in vivo; details: rat; 5 hours after intravenous administration; 0.2 ml of 0.5 mmol/L dye 8 and 9.5 mmol/L Gd complex; excitation 740 nm, detection >800 nm
Procedure: From the substance, 0.2 ml of a solution that contained 0.5 mmol/L of dye 8 and 9.5 mmol/L of 10-[1-methyl-2-oxo-3-aza-5-oxo-5-{4-perfluorooctylsulfonyl-piperazin-1-yl}-pentyl]-1,4,7-tris(carboxymethyl)-1,4,7,10-tetraazacyclododecane, was administered intravenously in a caudal vein of the rat. Five hours after administration, the lymph nodes were prepared and a fluorescence image was recorded. The fluorescence of the substances was stimulated by irradiation of the lymph nodes with near-infrared light of wavelength 740 nm, which was produced with an Nd:YAG laser. The fluorescence radiation was detected at a wavelength of >800 nm by an intensified CCD-camera, and the fluorescence images were stored digitally.

lymph nodes [5] = test: Visualization of lymph nodes in situ after interstitial administration; assay type: in vivo, rat; details: five hours after interstitial administration
Procedure: 0.1 ml of a formulation that contained 1 mmol/L of dye 8 and 19 mmol/L of 6-[1-O-α-D-mannopyranosyl)-hexanoic acid N-(3-oxa-1H,1H,2H,2H,4H,4H,5H,5H-perfluorotridecyl)-amide was administered interstitially in a skin fold between the toes of the right rear extremity. Five hours after administration, the test animal was sacrificed and opened abdominally. Based on the fluorescence image, the lymph nodes can be localized in situ and the lymph tracts can be visualized. […] The fluorescence of the substances was stimulated by irradiation of the abdominally-opened animal with near-infrared light of wavelength 740 nm, which was produced with an Nd:YAG laser. The fluorescence radiation was detected at a wavelength of >800 nm by an intensified CCD-camera, and the fluorescence images were stored digitally.

lymph nodes [6] = test: Fluorescence coloring of lymph nodes after interstitial administration (monosaccharide formulation); assay type: in vivo; details: 5 mol % of dye 8 and 95 mol % mannopyranosyl perfluoroalkyl amide
Procedure: From the substance, 0.1 ml of a solution that contained 1 mmol/L of dye 8 and 19 mmol/L of 6-[1-O-α-D-mannopyranosyl]-hexanoic acid N-(3-oxa-1H,1H,2H,2H,4H,4H,5H,5H-perfluorotridecyl)-amide was administered interstitially in a skin fold between the toes of the right rear extremity of the animal. Five hours after administration, the lymph nodes of the right and left sides of the body were prepared, and a fluorescence image was recorded. The fluorescence of the substances was stimulated by irradiation of the lymph nodes with near-infrared light of wavelength 740 nm, which was produced with an Nd:YAG laser. The fluorescence radiation was detected at a wavelength of >800 nm by an intensified CCD-camera, and the fluorescence images were stored digitally.

[7] = three-component formulation: 5 mol % of dye, 0 mol % of Gd complex, 95 mol % of monosaccharide
[8] = three-component formulation: 5 mol % of dye, 10 mol % of Gd complex, 85 mol % of monosaccharide
[9] = three-component formulation: 5 mol % of dye, 30 mol % of Gd complex, 65 mol % of monosaccharide
[10] = three-component formulation: 5 mol % of dye, 50 mol % of Gd complex, 45 mol % of monosaccharide
[11] = three-component formulation: 5 mol % of dye, 70 mol % of Gd complex, 25 mol % of monosaccharide
[12] = three-component formulation: 5 mol % of dye, 90 mol % of Gd complex, 5 mol % of monosaccharide
[13] = five hours after interstitial administration (right rear extremity)

Fluorescence max. ([1]; dyes 7-14 table, formulation with Gd-complex perfluoroalkyl derivative (WO 97/26017 Ex. 33), 5 mol % of dye): 788 nm | Fluorescence quantum yield ([1]; dyes 7-14 table, formulation with Gd-complex perfluoroalkyl derivative (WO 97/26017 Ex. 33), 5 mol % of dye, 2 μM in dye): 0.14 | Fluorescence max. ([1]; formulation with Gd-complex perfluoroalkyl derivative (WO 97/26017 Ex. 33), 1 mol % of dye): 784 nm | Fluorescence quantum yield ([1]; formulation with Gd-complex perfluoroalkyl derivative (WO 97/26017 Ex. 33), 1 mol % of dye, 2 μM in dye): 0.23 | Fluorescence max. ([1]; formulation with Gd-complex perfluoroalkyl derivative (WO 97/26017 Ex. 33), 2 mol % of dye): 785 nm | Fluorescence quantum yield ([1]; formulation with Gd-complex perfluoroalkyl derivative (WO 97/26017 Ex. 33), 2 mol % of dye, 2 μM in dye): 0.23 | Fluorescence max. ([1]; formulation with Gd-complex perfluoroalkyl derivative (WO 97/26017 Ex. 33), 5 mol % of dye): 788 nm | Fluorescence quantum yield ([1]; formulation with Gd-complex perfluoroalkyl derivative (WO 97/26017 Ex. 33), 5 mol % of dye, 2 μM in dye): 0.14 | Fluorescence max. ([1]; formulation with Gd-complex perfluoroalkyl derivative (WO 97/26017 Ex. 33), 10 mol % of dye): 790 nm | Fluorescence quantum yield ([1]; formulation with Gd-complex perfluoroalkyl derivative (WO 97/26017 Ex. 33), 10 mol % of dye, 2 μM in dye): 0.03 | Fluorescence maximum [1, 7]: 800 nm | Fluorescence quantum yield [1, 7]: 0.16 | Fluorescence maximum [1, 8]: 800 nm | Fluorescence quantum yield [1, 8]: 0.11 | Fluorescence maximum [1, 9]: 800 nm | Fluorescence quantum yield [1, 9]: 0.14 | Fluorescence maximum [1, 10]: 798 nm | Fluorescence quantum yield [1, 10]: 0.26 | Fluorescence maximum [1, 11]: 794 nm | Fluorescence quantum yield [1, 11]: 0.18 | Fluorescence maximum [1, 12]: 793 nm | Fluorescence quantum yield [1, 12]: 0.13
SMILES: CC1(C)C(=CC=CC=CC=CC2=[N+](CCCCS(=O)(=O)[O-])c3ccc(C(=O)N(CCOCCC(F)(F)C(F)(F)C(F)(F)C(F)(F)C(F)(F)C(F)(F)C(F)(F)C(F)(F)F)CC(O)CO)cc3C2(C)C)N(CCCCS(=O)(=O)[O-])c2ccccc21.[Na+] (centres unmarked) [Dye 10, 5-{N-[2-(3,3,4,4,5,5,6,6,7,7,8,8,9,9,10,10,10-heptadecafluorodecyloxy)ethyl]-N-(2,3-dihydroxypropyl)aminocarbonyl}-2-{7-[1,3-dihydro-3,3-dimethyl-1-(4-sulfobutyl)-2H-indol-2-ylidene]-1,3,5-heptatrienyl}-3,3-dimethyl-1-(4-sulfobutyl)-3H-indolium, internal salt, sodium salt]
fluorescence signal at the injection site (regional lymph nodes [2]; abdominal view, 120 minutes after administration): strong fluorescence signal | fluorescence signal at the injection site (regional lymph nodes [2]; right lateral view, 117 minutes after administration): strong fluorescence signal | coloring of regional (inguinal) lymph nodes (regional lymph nodes [3]): clearly visible green-coloring | near-infrared fluorescence of lymph node frozen sections (popliteal lymph node): pronounced fluorescence | fluorescence signal of axillary, inguinal and popliteal lymph nodes (lymph nodes [4]): All lymph nodes showed a clear fluorescence signal | visualization of lymph nodes and lymph tract in situ by fluorescence (lymph nodes [5]; abdominally-opened rat, 0.1 ml of 1 mmol/L dye 8 and 19 mmol/L mannopyranosyl perfluoroalkyl amide): visualized based on a fluorescence signal | visual coloring of lymph nodes in situ (lymph nodes [5]; rat, 5 mol % of dye 8 and 95 mol % mannopyranosyl perfluoroalkyl amide): green coloring | fluorescence signal of lymph nodes, left side of the body (lymph nodes [6]; [13]): no lymph nodes of the left side of the body | fluorescence signal of lymph nodes, right (administered) side of the body (lymph nodes [6]; [13]): Most lymph nodes of the right (administered) side of the body showed a fluorescence signal | coloring of the fluorescence-labeled lymph nodes (lymph nodes [6]; five hours after interstitial administration): greenish-colored
